Values after ≈ are worked out from the molar mass of the structure shown.
What was measured:
Assay in all cases: in vitro antibacterial activity, minimal inhibitory concentration
Format in all cases: cell-based
Klebs. pneu. = test system: Klebs. pneu.
Excerpt: (§1) The compounds of the invention are new chemical compounds that are used as pharmacological agents and especially as broad spectrum antibacterial agents. They are active in vitro against strains of both gram-positive and gram-negative bacteria.
(§2) Minimal Inhibitory Concentration (μg/ml)

Serr. marces. = test system: Serr. marces.
Excerpt: as §1, §2

Staph. aureus S18733 = settings: Staphylococcus aureus
Excerpt: as §1, §2

Pseudomonas #28 = settings: Pseudomonas #28, in vitro; read-out: Minimal Inhibitory Concentration
Excerpt: as §1, §2

Prot. vulg. = test system: Prot. vulg.
Excerpt: as §1, §2

Pseudomonas BRK 12-4-4 = settings: BRK1244; Pseudomonas BRK 12-4-4, in vitro
Excerpt: as §1, §2

Pseudomonas UI 18 = settings: UI18; Pseudomonas UI 18, in vitro
Excerpt: as §1, §2

E. coli Vogel = settings: Escherichia coli
Excerpt: as §1, §2

E. coli Brig = settings: Escherichia coli
Excerpt: as §1, §2

Strep. fec. = test system: Strep. fec.
Excerpt: as §1, §2

Entero. cloacae = settings: Enterobacter cloacae
Excerpt: as §1, §2

Staph. aureus UC-76 = settings: Staphylococcus aureus, UC76; Staph. aureus UC-76, in vitro
Excerpt: as §1, §2

Row | SMILES | MIC (Klebs. pneu.) | MIC (Serr. marces.) | MIC (Staph. aureus S18733) | MIC (Pseudomonas #28) | MIC (Prot. vulg.) | MIC (Pseudomonas BRK 12-4-4) | MIC (Pseudomonas UI 18) | MIC (E. coli Vogel) | MIC (E. coli Brig) | MIC (Strep. fec.) | MIC (Entero. cloacae) | MIC (Staph. aureus UC-76)
1 | CC(=O)N[C@@H](C)C(=O)Nc1ccc(-c2ncc(C(=O)N[C@@H](C(=O)NC3C(=O)N4C(C(=O)O)=C(CSc5nnnn5CC(=O)O)CSC34)c3ccccc3)c(O)n2)cc1 (stereo partly drawn) [Example 33] | 6.3 µg/mL (≈ 7.57 µM) | > 50 µg/mL | 25 µg/mL (≈ 30.1 µM) | 6.3 µg/mL (≈ 7.57 µM) | 3.1 µg/mL (≈ 3.73 µM) | 12.5 µg/mL (≈ 15 µM) | 12.5 µg/mL (≈ 15 µM) | 1.6 µg/mL (≈ 1.92 µM) | 12.5 µg/mL (≈ 15 µM) | > 50 µg/mL | 6.3 µg/mL (≈ 7.57 µM) | 6.3 µg/mL (≈ 7.57 µM)
2 | CC(=O)N[C@H](C)C(=O)Nc1ccc(-c2ncc(C(=O)N[C@@H](C(=O)NC3C(=O)N4C(C(=O)O)=C(CSc5nnnn5CC(=O)O)CSC34)c3ccccc3)c(O)n2)cc1 (stereo partly drawn) [Example 34, N-[2-[4-(N-Acetyl-D-alanylamino)phenyl]-4-hydroxy-5-pyrimidinylcarbonyl]-7-[D-2-amino-2-phenylacetamido]-3-[[(1-carboxymethyl-1H-tetrazol-5-yl)thio]methyl]-3-cephem-4-carboxylic acid] | 6.3 µg/mL (≈ 7.57 µM) | > 50 µg/mL | 25 µg/mL (≈ 30.1 µM) | 12.5 µg/mL (≈ 15 µM) | 1.6 µg/mL (≈ 1.92 µM) | 12.5 µg/mL (≈ 15 µM) | 12.5 µg/mL (≈ 15 µM) | 3.1 µg/mL (≈ 3.73 µM) | 12.5 µg/mL (≈ 15 µM) | > 50 µg/mL | 12.5 µg/mL (≈ 15 µM) | 12.5 µg/mL (≈ 15 µM)
3 | CC(=O)N[C@H](C)C(=O)Nc1ccc(-c2ncc(C(=O)N[C@@H](C(=O)NC3C(=O)N4C(C(=O)O)=C(CSc5nnnn5CC(=O)O)CSC34)c3ccc(O)cc3)c(O)n2)cc1 (stereo partly drawn) [Example 37, N-[2-[4-(N-Acetyl-D-alanylamino)phenyl]-4-hydroxy-5-pyrimidinylcarbonyl)-7-[D-2amino-2-(4-hydroxyphenyl)acetamido]-3-[[(1-carboxymethyl-1H-tetrazol-5-yl)thio]methyl]-3-cephem-4-carboxylic acid] | 12.5 µg/mL (≈ 14.7 µM) | > 50 µg/mL | 25 µg/mL (≈ 29.5 µM) | 12.5 µg/mL (≈ 14.7 µM) | 1.6 µg/mL (≈ 1.89 µM) | 12.5 µg/mL (≈ 14.7 µM) | 6.3 µg/mL (≈ 7.43 µM) | 3.1 µg/mL (≈ 3.66 µM) | 12.5 µg/mL (≈ 14.7 µM) | > 50 µg/mL | 12.5 µg/mL (≈ 14.7 µM) | 25 µg/mL (≈ 29.5 µM)
4 | C[C@@H](N)C(=O)Nc1ccc(-c2ncc(C(=O)N[C@@H](C(=O)NC3C(=O)N4C(C(=O)O)=C(CSc5nnnn5CC(=O)O)CSC34)c3ccccc3)c(O)n2)cc1 (stereo partly drawn) [Example 38, N-[2-[4-(D-Alanylamino)phenyl]-4-hydroxy-5-pyrimidinylcarbonyl]-7-[D-2-amino-2-phenylacetamido]-3-[[(1-carboxymethyl-1H-tetrazol-5-yl)thio]-methyl]-3-cephem-4-carboxylic acid] | 6.3 µg/mL (≈ 7.98 µM) | 25 µg/mL (≈ 31.7 µM) | 12.5 µg/mL (≈ 15.8 µM) | 3.1 µg/mL (≈ 3.92 µM) | 0.8 µg/mL (≈ 1.01 µM) | 3.1 µg/mL (≈ 3.92 µM) | 3.1 µg/mL (≈ 3.92 µM) | 0.8 µg/mL (≈ 1.01 µM) | 6.3 µg/mL (≈ 7.98 µM) | > 50 µg/mL | 6.3 µg/mL (≈ 7.98 µM) | 6.3 µg/mL (≈ 7.98 µM)
5 | CC(=O)NCC(=O)Nc1ccc(-c2ncc(C(=O)N[C@@H](C(=O)NC3C(=O)N4C(C(=O)O)=C(CSc5nnc(C)s5)CSC34)c3ccccc3)c(O)n2)cc1 (stereo partly drawn) [Example 39, N-[2-[4-(N-Acetylglycylamino)phenyl]-4-hydroxy-5-pyrimidinylcarbonyl]-7-[D-2-amino-2-phenylacetamido]-3-[[(5-methyl-1,3,4-thiadiazol-2-yl)thio]methyl]-3-cephem-4-carboxylic acid] | 1.6 µg/mL (≈ 2.03 µM) | 50 µg/mL (≈ 63.3 µM) | 3.1 µg/mL (≈ 3.92 µM) | 12.5 µg/mL (≈ 15.8 µM) | 6.3 µg/mL (≈ 7.98 µM) | 25 µg/mL (≈ 31.7 µM) | 25 µg/mL (≈ 31.7 µM) | 1.6 µg/mL (≈ 2.03 µM) | 12.5 µg/mL (≈ 15.8 µM) | 50 µg/mL (≈ 63.3 µM) | 6.3 µg/mL (≈ 7.98 µM) | 0.8 µg/mL (≈ 1.01 µM)
6 | NC(=O)CC[C@H](N)C(=O)Nc1ccc(-c2ncc(C(=O)N[C@@H](C(=O)NC3C(=O)N4C(C(=O)O)=C(CSc5nnnn5CC(=O)O)CSC34)c3ccccc3)c(O)n2)cc1 (stereo partly drawn) [Example 41, N-[2-[4-(L-Glutaminylamino)phenyl]-4-hydroxy-5-pyrimidinylcarbonyl]-7-[D-2-amino-2-phenylacetamido]-3-[[(1-carboxymethyl-1H-tetrazol-5-yl)thio]methyl]-3-cephem-4-carboxylic acid] | 3.1 µg/mL (≈ 3.66 µM) | 50 µg/mL (≈ 59 µM) | 25 µg/mL (≈ 29.5 µM) | 12.5 µg/mL (≈ 14.8 µM) | 1.6 µg/mL (≈ 1.89 µM) | 12.5 µg/mL (≈ 14.8 µM) | 12.5 µg/mL (≈ 14.8 µM) | 3.1 µg/mL (≈ 3.66 µM) | 12.5 µg/mL (≈ 14.8 µM) | > 50 µg/mL | 12.5 µg/mL (≈ 14.8 µM) | 12.5 µg/mL (≈ 14.8 µM)
7 | O=C(O)Cn1nnnc1SCC1=C(C(=O)O)N2C(=O)C(NC(=O)[C@H](NC(=O)c3cnc(-c4ccc(NC(=O)CN5CCCC5=O)cc4)nc3O)c3ccccc3)C2SC1 (stereo partly drawn) [Example 42] | 3.1 µg/mL (≈ 3.67 µM) | 50 µg/mL (≈ 59.3 µM) | 25 µg/mL (≈ 29.6 µM) | 6.3 µg/mL (≈ 7.47 µM) | 1.6 µg/mL (≈ 1.9 µM) | 12.5 µg/mL (≈ 14.8 µM) | 6.3 µg/mL (≈ 7.47 µM) | 3.1 µg/mL (≈ 3.67 µM) | 6.3 µg/mL (≈ 7.47 µM) | > 50 µg/mL | 6.3 µg/mL (≈ 7.47 µM) | 12.5 µg/mL (≈ 14.8 µM)
